Measured values as given in PubChem BioAssay (NCI).
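GI50 marks 50% less growth. TGI: concentration producing complete growth inhibition.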

Assays:
Experiment in all cases: NCI tumour cell line growth inhibition, 384-well format
[1] = test system: 786-0 renal
[2] = test system: A498 renal
[3] = test system: A549 NSCLC
[4] = test system: ACHN renal
[5] = test system: BT-549 breast
[6] = test system: CAKI-1 renal
[7] = test system: CCRF-CEM leukemia
[8] = test system: COLO 205 colon
[9] = test system: DU-145 prostate
[10] = test system: HCC-2998 colon
[11] = test system: HCT-116 colon
[12] = test system: HCT-15 colon
[13] = test system: HL-60(TB) leukemia
[14] = test system: HOP-62 NSCLC
[15] = test system: HOP-92 NSCLC
[16] = test system: HT29 colon
[17] = test system: IGROV1 ovarian
[18] = test system: K-562 leukemia
[19] = test system: KM12 colon
[20] = test system: LOX IMVI melanoma
[21] = test system: M14 melanoma
[22] = test system: MALME-3M melanoma
[23] = test system: MCF7 breast
[24] = test system: MDA-MB-231 breast
[25] = test system: MDA-MB-435 melanoma
[26] = test system: MDA-MB-468 breast
[27] = test system: MOLT-4 leukemia
[28] = test system: NCI-H226 lung
[29] = test system: NCI-H322M lung
[30] = test system: NCI-H460 NSCLC
[31] = test system: NCI-H522 lung
[32] = test system: NCI/ADR-RES ovarian
[33] = test system: OVCAR-4 ovarian
[34] = test system: OVCAR-5 ovarian
[35] = test system: OVCAR-8 ovarian
[36] = test system: PC-3 prostate
[37] = test system: RPMI-8226 leukemia
[38] = test system: RXF 393 renal
[39] = test system: SF-268 CNS
[40] = test system: SF-539 CNS
[41] = test system: SK-MEL-2 melanoma
[42] = test system: SK-MEL-28 melanoma
[43] = test system: SK-MEL-5 melanoma
[44] = test system: SK-OV-3 ovarian
[45] = test system: SN12C renal
[46] = test system: SNB-19 CNS
[47] = test system: SR leukemia
[48] = test system: SW-620 colon
[49] = test system: TK-10 renal
[50] = test system: U251 glioblastoma
[51] = test system: UACC-257 melanoma
[52] = test system: UACC-62 melanoma
[53] = test system: UO-31 renal

Cc1c(F)c(N)c2c(=O)cc(-c3ccc(NC(=O)[C@@H](N)CCCCN)c(F)c3)oc2c1F
GI50 [1]: 9.12 µM
TGI [1]: 21.3 µM
GI50 [2]: 0.0368 µM
TGI [2]: 0.182 µM
GI50 [3]: 1.72 µM
TGI [3]: 17.1 µM
GI50 [4]: 11.2 µM
TGI [4]: 23.3 µM
GI50 [5]: 5.47 µM
TGI [5]: 17.9 µM
GI50 [6]: 1.52 µM
TGI [6]: 19.5 µM
GI50 [7]: 1.6 µM
TGI [7]: 3.08 µM
GI50 [8]: 6.39 µM
TGI [8]: 18 µM
GI50 [9]: 12.5 µM
TGI [9]: 25 µM
GI50 [10]: 11.7 µM
TGI [10]: 24 µM
GI50 [11]: 1.01 µM
TGI [11]: 2.57 µM
GI50 [12]: 8.41 µM
TGI [12]: 20.6 µM
GI50 [13]: 0.878 µM
TGI [13]: 15.4 µM
GI50 [14]: 9.12 µM
TGI [14]: 21.5 µM
GI50 [15]: 4.95 µM
TGI [15]: 15.7 µM
GI50 [16]: 13.2 µM
TGI [16]: 26 µM
GI50 [17]: 0.0154 µM
TGI [17]: 0.0561 µM
GI50 [18]: 1.09 µM
TGI [18]: 2.85 µM
GI50 [19]: 2.31 µM
TGI [19]: 5.46 µM
GI50 [20]: 10.2 µM
TGI [20]: 21.9 µM
GI50 [21]: 2.86 µM
TGI [21]: 6.82 µM
GI50 [22]: 4.61 µM
TGI [22]: 12.1 µM
GI50 [23]: 0.0266 µM
TGI [23]: 0.146 µM
GI50 [24]: 5.54 µM
TGI [24]: 17.4 µM
GI50 [25]: 3.27 µM
TGI [25]: 8.1 µM
TGI [26]: 0.0175 µM
GI50 [27]: 1.57 µM
TGI [27]: 2.91 µM
GI50 [28]: 0.0195 µM
TGI [28]: 0.128 µM
GI50 [29]: 9.87 µM
TGI [29]: 21.5 µM
GI50 [30]: 0.37 µM
TGI [30]: 2.03 µM
GI50 [31]: 4.75 µM
TGI [31]: 18.6 µM
GI50 [32]: 12.7 µM
TGI [32]: 25.3 µM
GI50 [33]: 8.64 µM
TGI [33]: 21 µM
GI50 [34]: 0.046 µM
TGI [34]: 12 µM
GI50 [35]: 6.35 µM
TGI [35]: 19.5 µM
GI50 [36]: 13.3 µM
TGI [36]: 26.1 µM
GI50 [37]: 0.804 µM
TGI [37]: 3.31 µM
GI50 [38]: 8.49 µM
TGI [38]: 20.7 µM
GI50 [39]: 6.37 µM
TGI [39]: 18.9 µM
GI50 [40]: 2.27 µM
TGI [40]: 4.54 µM
GI50 [41]: 2.98 µM
TGI [41]: 11.9 µM
GI50 [42]: 13.4 µM
TGI [42]: 26.2 µM
GI50 [43]: 0.378 µM
TGI [43]: 12.4 µM
GI50 [44]: 3.17 µM
TGI [44]: 12 µM
GI50 [45]: 10.3 µM
TGI [45]: 22 µM
GI50 [46]: 11.3 µM
TGI [46]: 23.4 µM
GI50 [47]: 1.52 µM
TGI [47]: 2.89 µM
GI50 [48]: 2.56 µM
TGI [48]: 11.5 µM
GI50 [49]: 0.13 µM
TGI [49]: 12.6 µM
GI50 [50]: 1.26 µM
TGI [50]: 2.6 µM
GI50 [51]: 0.285 µM
TGI [51]: 0.884 µM
GI50 [52]: 0.618 µM
TGI [52]: 16 µM
GI50 [53]: 11.1 µM
TGI [53]: 23.1 µM
